{
  "source": "patent US20110118209A1",
  "about": "(priority 2006, published 2011)",
  "key": {"[1]": {"test_system": "primary rabbit kidney proximal tubule (RPT) cells"}, "[2]": {"test_system": "P388/0", "type": "in vivo, mice"}, "[3]": {"test_system": "L1210/CPA", "type": "in vivo, mice"}, "[4]": {"test_system": "P388/CPA", "type": "in vivo, mice"}, "[5]": {"test_system": "L1210/0", "type": "in vivo, mice"}, "[6]": {"test_system": "human lox-IMVI melanoma", "type": "in vivo"}, "[7]": {"test_system": "mice", "test": "Tolerability of IPM in tumor-bearing mice (Example 4 studies)", "type": "in vivo", "conditions": "IP and IV treatment", "excerpt": "This example describes the evaluation of IPM against several different cancer cell lines implanted in mice."}, "[8]": {"test_system": "mice", "conditions": "75 mg/kg, either sex"}, "[9]": {"test": "in vivo", "conditions": "rat, po"}, "[10]": {"test_system": "B16 Melanoma", "design": "species or system mice", "conditions": "mouse, in vivo"}, "[11]": {"conditions": "175 mg/kg IP day 1 only, female CDF1 mice"}, "[12]": {"conditions": "265 mg/kg IP day 1 only, female CDF1 mice"}, "[13]": {"conditions": "200 mg/kg IP day 2 only, male CDF1 mice"}},
  "note": "Where two headings read alike, the source gives them in different places.",
  "data": [
    {"smiles": "O=P1(NCCCl)OCCC(O)N1CCCl", "note": "(stereo not shown) [4-hydroxyifosfamide]", "values": [
      {"measurement": "cell death", "setting": "[1]", "value": "extensive cell death"}
    ]},
    {"smiles": "O=P1(N(CCCl)CCCl)NCCCO1", "note": "(stereo not shown) [CPA, cyclophosphamide]", "values": [
      {"measurement": "Net log10 Reduction in tumor burden after therapy", "setting": "[2]; [11]", "value": 7, "unit": "log10"},
      {"measurement": "Net log10 Reduction in tumor burden after therapy", "setting": "[2]; [12]", "value": 7, "unit": "log10"},
      {"measurement": "Net log10 Reduction in tumor burden after therapy", "setting": "[3]; [13]", "value": 4, "unit": "log10"},
      {"measurement": "Net log10 Reduction in tumor burden after therapy", "setting": "[4]; [11]", "value": 3, "unit": "log10"},
      {"measurement": "Net log10 Reduction in tumor burden after therapy", "setting": "[4]; [12]", "value": 3, "unit": "log10"},
      {"measurement": "Net log10 Reduction in tumor burden after therapy", "setting": "[5]; [13]", "value": 7, "unit": "log10"},
      {"measurement": "Median Day of Death", "setting": "[6]; 40 mg/kg/dose IV Q1 D × 5, nude mice", "value": 42.0, "unit": "days"}
    ]},
    {"smiles": "O=P1(NCCCl)OCCC(OO)N1CCCl", "note": "(stereo not shown) [HIFA, 4-hydroperoxyifosfamide]", "values": [
      {"measurement": "effect on viability", "setting": "[1]", "value": "did not significantly affect viability"}
    ]},
    {"smiles": "O=P(O)(NCCCl)NCCCl", "note": "[IPM, N,N′-di(2-chloroethyl)phosphorodiamidic acid]", "values": [
      {"measurement": "tolerability", "setting": "[7]", "value": "tolerated intraperitoneal (IP) and intravenous (IV) treatment with IPM well"},
      {"measurement": "microscopic findings", "setting": "[8]", "value": "No obvious treatment-related microscopic findings"},
      {"measurement": "Net log10 Reduction in tumor burden after therapy", "setting": "[3]; mouse, in vivo", "value": 7, "unit": "log10"},
      {"measurement": "Net log10 Reduction in tumor burden after therapy", "setting": "[4]; mouse, in vivo", "value": 7, "unit": "log10"},
      {"measurement": "Net log10 Reduction in tumor burden after therapy", "setting": "[5]; mouse, in vivo", "value": 8, "unit": "log10"},
      {"measurement": "LD50", "setting": "[9]", "value": "1400 to 3500", "unit": "mg/kg"},
      {"measurement": "efficacy compared with CPA and Ifos", "setting": "[10]", "value": "slightly inferior to CPA but better than Ifos"},
      {"measurement": "Median Day of Death", "setting": "[6]; in vivo", "value": 29.0, "unit": "days"}
    ]},
    {"smiles": "O=P1(NCCCl)OCCCN1CCCl", "note": "(stereo not shown) [Ifos, Ifosfamide]", "values": [
      {"measurement": "Net log10 Reduction in tumor burden after therapy", "setting": "[2]; mouse, in vivo", "value": 7, "unit": "log10"},
      {"measurement": "Net log10 Reduction in tumor burden after therapy", "setting": "[4]; mouse, in vivo", "value": 4, "unit": "log10"},
      {"measurement": "Net log10 Reduction in tumor burden after therapy", "setting": "[5]; mouse, in vivo", "value": 8, "unit": "log10"}
    ]},
    {"smiles": "C=CC=O", "note": "[acrolein]", "values": [
      {"measurement": "LD50", "setting": "[1]; rabbit", "value": 80, "unit": "µM"}
    ]},
    {"smiles": "O=CCCl", "note": "[chloroacetaldehyde]", "values": [
      {"measurement": "concentration of complete inhibition", "setting": "[1]; rabbit", "value": 75, "unit": "µM"}
    ]}
  ]
}
